Experimental data as given in ChEMBL document CHEMBL1201862, “PubChem BioAssay data set” (2004).
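Assay format: 96-well plates, 48-hour exposure. Here, GI50 denotes the concentration required for 50% inhibition of growth.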 Calls of active or inactive are those of the source. Rule as the data show it: active = GI50 up to about 1.1 µM and inactive = higher.

Legend:
Test in all cases: NCI tumour cell line growth inhibition, 48 h
[1] = test system: HOP-92
[2] = test system: HCT-15
[3] = test system: SF-295
[4] = test system: HCT-116
[5] = test system: SF-539
[6] = test system: SK-MEL-5
[7] = test system: MCF7
[8] = test system: NCI-H522
[9] = test system: LOX IMVI
[10] = test system: OVCAR-5
[11] = test system: A549
[12] = test system: MDA-MB-435
[13] = test system: OVCAR-4
[14] = test system: CCRF-CEM
[15] = test system: 786-0
[16] = test system: HCC 2998
[17] = test system: DU-145
[18] = test system: MOLT-4
[19] = test system: OVCAR-8
[20] = test system: A498

Structure (SMILES) | GI50 [1] | GI50 [2] | GI50 [3] | GI50 [4] | GI50 [5] | GI50 [6] | GI50 [7] | GI50 [8] | GI50 [9] | GI50 [10] | GI50 [11] | GI50 [12] | GI50 [13] | GI50 [14] | GI50 [15] | GI50 [16] | GI50 [17] | GI50 [18] | GI50 [19] | GI50 [20]
CCOC(=O)Cc1nn2c(=O)cc(C)nc2s1 | > 100 µM (inactive) | > 100 µM | > 100 µM (inactive) | > 100 µM (inactive) | 55.2 µM (inactive) | > 100 µM (inactive) | > 100 µM (inactive) | > 100 µM (inactive) | > 100 µM (inactive) | > 100 µM (inactive) | > 100 µM (inactive) | > 100 µM (inactive) | > 100 µM (inactive) | > 100 µM (inactive) | > 100 µM (inactive) | > 100 µM (inactive) | > 100 µM (inactive) | > 100 µM (inactive) | > 100 µM (inactive) | 
O=C(O)c1cc2ccc3ccccc3c2oc1=O | > 100 µM (inactive) | > 100 µM | > 100 µM (inactive) | > 100 µM (inactive) | > 100 µM (inactive) | > 100 µM (inactive) | > 100 µM (inactive) | > 100 µM (inactive) | > 100 µM (inactive) | > 100 µM (inactive) | > 100 µM (inactive) | > 100 µM (inactive) | > 100 µM (inactive) | > 100 µM (inactive) | > 100 µM (inactive) | > 100 µM (inactive) |  | > 100 µM (inactive) | > 100 µM (inactive) | 54.2 µM (inactive)
C=C1CC[C@H]2C(=O)OC(c3ccoc3)C[C@]2(C)C/C=C\C=C/1C(=O)OC (stereo not given in full) | > 25 µM (inactive) | > 25 µM | > 25 µM (inactive) | > 25 µM (inactive) | > 25 µM (inactive) | > 25 µM (inactive) | > 25 µM (inactive) |  | > 25 µM (inactive) | > 25 µM (inactive) | > 25 µM (inactive) |  | > 25 µM (inactive) |  | > 25 µM (inactive) | > 25 µM (inactive) |  |  | > 25 µM (inactive) | > 25 µM (inactive)
Cc1cccc2c1Oc1ccccc1C2NC(=O)c1ccc([N+](=O)[O-])cc1 (stereo not given) | > 100 µM (inactive) | > 100 µM | > 100 µM (inactive) | > 100 µM (inactive) |  | > 100 µM (inactive) |  | > 100 µM (inactive) | > 100 µM (inactive) | > 100 µM (inactive) | > 100 µM (inactive) |  | 32.2 µM (inactive) | > 100 µM (inactive) | > 100 µM (inactive) |  | 21 µM (inactive) | > 100 µM (inactive) | > 100 µM (inactive) | 76.4 µM (inactive)
N#Cc1c2ccc([N+](=O)[O-])cc2c(=O)n2c1sc1ccccc12 | 13.5 µM (inactive) | 22.2 µM |  | 11.1 µM (inactive) |  | 22 µM (inactive) |  |  | 25.2 µM (inactive) |  | 12.2 µM (inactive) | 57.7 µM (inactive) | 20.6 µM (inactive) | 7.29 µM (inactive) | 24.2 µM (inactive) | 8.05 µM (inactive) | 35.5 µM (inactive) |  | 35.2 µM (inactive) | 13.5 µM (inactive)
O=C1Nc2ccccc2C1Cc1ccc([N+](=O)[O-])cc1 (stereo not given) |  | > 100 µM | > 100 µM (inactive) | > 100 µM (inactive) |  | 57.5 µM (inactive) | > 100 µM (inactive) | 35.9 µM (inactive) | > 100 µM (inactive) | > 100 µM (inactive) | > 100 µM (inactive) | > 100 µM (inactive) | 84.5 µM (inactive) | 20.1 µM (inactive) | > 100 µM (inactive) | > 100 µM (inactive) | > 100 µM (inactive) | 14.1 µM (inactive) | > 100 µM (inactive) | 
